According to patent US6555372B1, “Composition for enhancing cellular immunogenicity comprising alpha-glycosylceramides” (Kirin Beer Kabushiki Kaisha, priority 1997, dated 2003):

Tests used:
[1] = system: Mouse T lymphoma EL-4 cells; experiment: Therapeutic effect of treated tumor cells in EL-4 liver metastasis model mice; assay type: in vivo
Method: Mouse T lymphoma EL-4 cells (4×10^5 cells/mouse) were implanted intravenously into the tail of BDF1 mice (female, 6 weeks of age, Japan SLC, Inc.), 6 animals in one group, to prepare cancer-bearing mice. The days of tumor implantation was set to be day 0. On the same day, a vehicle (0.1% DMSO), KRN 7000 (100 ng/ml) or AGL-583 (100 ng/ml) was added to EL-4 cells which had been inoculated into a fresh medium, in the same manner as in Pharmacological Test 1 above. One day after the start of incubation, cells of EL-4/V, EL-4/KRN and EL-4/583 cultured in the presence of the vehicle, KRN 7000 and AGL-583, respectively, were recovered and washed twice with the medium, after which the recovered cells were immunized intravenously into the tail of the cancer-bearing mice at 1×10^5 cells/mouse. The resulting antitumor effect was compared.
EL-4 implanted mice generally died in about 30 days owing to the tumor formation and growth in several organs, particularly in the liver. Therefore, antitumor effect was evaluated by observing the survival period of cancer-bearing hosts.

[2] = system: B16, EL-4, Lewis lung carcinoma, Colon 26, L1210 and Meth A mouse tumor cells; experiment: Effect of α-glycosylceramide on tumorigenicity of tumor cells; assay type: in vivo; conditions: six mouse tumor cell lines cultured 1 day with 100 ng/ml, implanted i.v. into C57BL/6 or BALB/c mice; FIG. 4
From the text: Six kinds of mouse tumor cells, i.e., three kinds of C57BL/6 mouse-derived tumor cells, i.e., murine melanoma B16 cells (Dainippon Pharmaceutical Co., Ltd.), mouse T lymphoma EL-4 cells (Dainippon Pharmaceutical Co., Ltd.) and mouse Lewis lung carcinoma cells (Dainippon Pharmaceutical Co., Ltd.), and three kinds of BALB/c-mouse derived tumor cells, i.e., mouse colon cancer cell Colon 26 (Japanese Foundation for Cancer Research), mouse leukemia L1210 cells (Japanese Foundation for Cancer Research) and mouse fibrosarcoma Meth A cells (Japanese Foundation for Cancer Research) were cultured with or without an addition of a vehicle (0.1% DMSO) or KRN 7000 (100 ng/ml) for one day as described in Pharmacological Tests above. The resulting tumor cells were washed twice with a medium, suspended again in a fresh medium and implanted intravenously into the tail of corresponding mice. […]
The tumor cells implanted intravenously into the tail formed metastasized nodules in various organs, particularly in the liver or lung, and ultimately killed the animals. Accordingly, the effect of the tumor cells on tumorigenicity (a rate of tumor formation, the ability to form tumor burden) was evaluated by observing the survival period.

[3] = EL-4-bearing BDF1 mice immunized i.v. on day 1 with 1×10^5 EL-4 cells cultured 1 day with 100 ng/ml compound, vs control mice with tumor only, FIG. 2

Compound | survival period [1, 3] | treated mice survived for a long term ([1]; EL-4-bearing BDF1 mice immunized i.v. with 1×10^5 EL-4 cells cultured 1 day with 100 ng/ml compound, 6 animals per group) [%] | tumorigenicity of treated tumor cells [2] | antitumor effect [1, 3]
CCCCCCCCCCCCCCCCCCCCCCCCCC(=O)N[C@@H](CO[C@H]1O[C@H](CO)[C@H](O)[C@H](O)[C@H]1O)[C@H](O)[C@H](O)CCCCCCCCCCCCCC [KRN 7000, (2S,3S,4R)-1-(α-D-galactopyranosyloxy)-2-hexacosanoylamino-3,4-octadecanediol] | markedly prolonged | 33.3 | diminished or completely abolished | –
CCCCCCCCCCCCCCCCCCCCCCCCCC(=O)N[C@@H](CO[C@@H]1O[C@H](CO)[C@H](O)[C@H](O)[C@H]1O)[C@H](O)[C@H](O)CCCCCCCCCCCCCC [AGL-583, reference compound] | not prolonged at all | – | – | no evident antitumor effect was observed
